Reference: US11679102B2, “Method for inhibiting virus infection and replication” (Chang Gung University, priority 2020, dated 2023)

Columns and labels:
CV-A6-infected RD cells = format: cell-based, human; settings: wild-type RD cells pretreated 1 hour with ferrostatin-1 100 μM or troglitazone 20 μM, then CV-A6 m.o.i. 0.01 for 36 hours; vs mock-infected; FIG. 11 lower panel
HCoV-229E [1] = test: Cell viability of HCoV-229E-infected LLC-MK2 cells (CellTiter96 Aqueous One Solution); format: cell-based, human coronavirus 229E; settings: pretreated 1 hour at 0-120 μM, HCoV-229E m.o.i. 0.01, 7 d.p.i.; FIG. 13
Protocol: Wild-type RD cells and LLC-MK2 cells were seeded at a concentration of 2000 cells per well into respective wells of 96-well plates containing DMEM and 10% FBS. […] Mock-infected RD and LLC-MK2 cells served as control groups. CV-A6-infected and mock-infected RD cells, and HCoV-229E-infected and mock-infected LLC-MK2 cells were subjected to cell viability determination using CellTiter96 Aqueous One Solution Cell Proliferation Assay (Promega).

HCoV-OC43 = test: Virus titer of HCoV-OC43 in infected Vero E6 cells (viral plaque assay); settings: pretreated 1 hour with ferrostatin-1 40 μM or troglitazone 10 μM; m.o.i. 0.01; 1, 2, 3 d.p.i.; FIG. 15 lower panel
CV-A6 [2] = format: cell-based, Coxsackie virus A6; settings: pretreated 1 hour at 0-120 μM, CV-A6 m.o.i. 0.01, 36 h.p.i.; FIG. 12
CV-A6 [3] = format: cell-based, Coxsackie virus A6; settings: pretreated 1 hour with ferrostatin-1 100 μM or troglitazone 20 μM; m.o.i. 0.01; 24, 36, 48 h.p.i.; FIG. 14
RD cells = test: Lipid peroxidation (BODIPY 581/591-C11, flow cytometry) in RSL3-treated RD cells pretreated with ferroptosis inhibitors
Protocol: (§1) Next, the treated cells and the infected cells were stained by incubating with 1 μM BODIPY™ 581/591-C11 (Invitrogen) at 37° C. for 30 minutes, and then collected using trypsin (Gibco). Thereafter, the stained cells were subjected to centrifugation at 300 g for 10 minutes to remove trypsin and the cell culture media, and then resuspended in 500 μL of fresh PBS. Subsequently, at least 10000 cells per sample were subjected to flow cytometry analysis using Attune NxT flow cytometer (Invitrogen), and FlowJo software was used for viewing and analyzing the thus obtained data. The BODIPY™ 581/591-C11 levels in the control groups (i.e., DMSO-treated cells and mock-infected cells) were set as 100%.
Wild-type RD cells were seeded in 12-well plates at a concentration of 1×10^5 cells per well. […] Subsequently, the pretreated cells were treated with 1 μM of RSL3 for 36 hours, or the same amount of DMSO serving as control group for comparison purpose.
Thereafter, these cells were subjected to staining with BODIPY™ 581/591-C11 (Invitrogen) and flow cytometry analysis according to the experimental procedures as described in the preceding sub-section, entitled “A. Determining lipid peroxidation level in virus-infected cells,” of this Example. The BODIPY™ 581/591-C11 levels in the control groups (i.e., DMSO-treated cells and mock-infected cells) were set as 100%.

HCoV-229E [4] = test: Virus titer of HCoV-229E in infected LLC-MK2 cells (viral plaque assay); settings: pretreated 1 hour with ferrostatin-1 40 μM or troglitazone 10 μM; m.o.i. 0.01; 1, 2, 3 d.p.i.; FIG. 15 upper panel
[5] = system: RD-sgACSL4^+/+ and RD-sgACSL4^−/− cells; test: Lipid peroxidation (BODIPY 581/591-C11) in RSL3-treated RD-sgACSL4+/+ control and RD-sgACSL4−/− knockout cells; settings: 1 μM RSL3, 36 hours, FIG. 9 upper panel
Protocol: Specifically, the RD-sgACSL4^−/− knockout and RD-sgACSL4^+/+ control cells were seeded in 12-well plates at a concentration of 1×10^5 cells per well.
as §1

SMILES	CV-A6-induced increase in lipid peroxidation level (relative BODIPY 581/591-C11 level) (CV-A6-infected RD cells)	Cell viability of HCoV-229E-infected LLC-MK2 cells (HCoV-229E [1])	Viral yields (virus titer) of HCoV-OC43 in infected Vero E6 cells vs DMSO control group (HCoV-OC43)	Cell viability of CV-A6-infected RD cells (CV-A6 [2])	Viral yields (virus titer) of CV-A6 in infected RD cells vs DMSO control group (CV-A6 [3])	RSL3-induced increase in lipid peroxidation level (relative BODIPY 581/591-C11 level) (RD cells; wild-type RD cells pretreated 1 hour with ferrostatin-1 100 μM or troglitazone 20 μM, then 1 μM RSL3 for 36 hours, vs DMSO control, FIG. 11 upper panel)	Viral yields (virus titer) of HCoV-229E in infected LLC-MK2 cells vs DMSO control group (HCoV-229E [4])	Induction of lipid peroxidation in cells with normal ACSL4 expression ([5]; RD-sgACSL4^+/+ control cells)	Induction of lipid peroxidation in ACSL4 knockout cells ([5]; RD-sgACSL4^−/− knockout cells)	Lipid peroxidation level in RSL3-treated cells compared with DMSO-treated cells (RD cells; wild-type RD cells, 1 μM RSL3, 36 hours, FIG. 11)
CCOC(=O)c1ccc(NC2CCCCC2)c(N)c1 [ferrostatin-1]	significantly diminished	increasing cell viability	significantly lower	increasing cell viability	significantly lower	significantly diminished	significantly lower			
COC(=O)c1ccc([C@@H]2c3[nH]c4ccccc4c3C[C@@H](C(=O)OC)N2C(=O)CCl)cc1 [RSL3]								effectively induce lipid peroxidation	unable to induce lipid peroxidation	significant increase
